Test results reported in patent US11767302B2, “Reagents and methods for tetrazine synthesis” (University of Delaware, priority 2020, dated 2023).
Values joined by “and” are separate entries in the source; they are usually repeats but may differ in a detail not shown here. Equal entries are not always repeated.

Assays:
[1] = Stopped-flow kinetic analysis of tetrazines with eq-5-hydroxy-trans-cyclooctene in PBS buffer at 25° C.; conditions: for k2, second order rate constant / kobs: PBS pH 7.4, 25° C.; for k2, second order rate constant: linear regression of kobs; for kobs: 0.025 mM tetrazine; for krel: relative to 5b, PBS, 25° C.
Method: Solutions (5 mL) of tetrazines 5b, 6c, 5l, 6a and 4f (0.050 mM) were prepared in PBS buffer (pH 7.4). Solutions (10 mL) of eq-5-hydroxy-trans-cyclooctene (0.50, 0.60, 0.70, 0.80 mM) were prepared in PBS buffer (pH 7.4). The reactions between tetrazines and trans-cyclooctene were measured under pseudo-first order conditions using SX 18MV-R stopped-flow spectrophotometer (Applied Photophysics Ltd.). Each solution of tetrazine and trans-cyclooctene were injected in equal volumes via 3 mL syringes into the stopped-flow instrument at 25° C., resulting in final concentration of 0.025 mM of tetrazines and 0.25, 0.30, 0.35, 0.40 mM trans-cyclooctene. The reaction was monitored by the decay of absorbance associated with the tetrazines (5b at 263 nm, 6c at 268 nm, 5l at 274 nm, 6a at 296 nm, 4f at 266 nm). Reaction were repeated in triplicate. With Prism software, an observed rate constant, kobs, was obtained by nonlinear regression. Second order rate constants, k2, were calculated by linear regression between kobs and final concentration of trans-cyclooctene.

[2] = Tetrazine stability in PBS buffer in ambient light at 25° C.; assay type: physicochemical; conditions: PBS buffer pH 7.4, ambient light, day 0-5
Method: Solutions (3 mL) of tetrazine 5b, 5l and 6c (400 μM) were prepared in PBS buffer (pH 7.4) in vials and stored in ambient light at 25° C. Tetrazine concentrations were determined by recording the absorbance at 518 nm (6c) and 520 nm (5b and 5l) in cuvettes in day 0, 1, 3 and 5. A solution of 6a (50 μM) was prepared in PBS buffer (pH 7.4) in vials and stored in ambient light at room temperature. Tetrazine concentration was determined by recording the absorbance at 520 nm in cuvettes at day 0, 1, 3 and 5.

Experimental log P = assay type: physicochemical
human MAGL enzyme = target: T1, human MAGL enzyme (Homo sapiens, UniProt Q99685); test: MAGL in vitro activity assay (7-HCA substrate, fluorescence); assay type: biochemical; conditions: human MAGL pre-treated 30 min at room temperature, 7-HCA substrate 1 h; read-out: IC50, inhibition of MAGL activity in vitro
T1 sequence (Q99685 1-303): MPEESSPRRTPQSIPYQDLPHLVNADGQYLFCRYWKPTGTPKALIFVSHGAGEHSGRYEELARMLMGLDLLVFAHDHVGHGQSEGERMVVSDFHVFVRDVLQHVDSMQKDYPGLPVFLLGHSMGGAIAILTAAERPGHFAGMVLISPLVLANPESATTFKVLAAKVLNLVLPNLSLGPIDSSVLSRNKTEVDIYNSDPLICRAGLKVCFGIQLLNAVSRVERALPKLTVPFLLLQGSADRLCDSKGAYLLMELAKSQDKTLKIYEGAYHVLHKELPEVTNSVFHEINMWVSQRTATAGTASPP
Method: MAGL in vitro activity assay. The MAGL in vitro activity assay was performed based on a reported protocol. Briefly, human MAGL enzyme was pre-treated with compounds at room temperature for 30 min, and subsequently incubated with 7-hydroxycoumarinyl arachidonate (7-HCA) as a substrate at room temperature for 1 h. The fluorescence signals were measured on an Envision plate reader (excitation 355 nm, emission 460 nm).

[3] = Stopped-flow kinetic analysis of MAGL tetrazines with eq-5-hydroxy-trans-cyclooctene in MeOH at 25° C.; conditions: for kobs: 0.04 mM tetrazine, 0.40 mM trans-cyclooctene, MeOH; for kobs / krel: 25° C.; for krel: relative to 12, MeOH
Method: Solutions (3 mL) of tetrazines 100a, 100b, 100c and 12 (0.080 mM) was prepared in MeOH. Solutions (3 mL) of eq-5-hydroxy-trans-cyclooctene (0.80 mM) were prepared in MeOH. The reactions between tetrazines and trans-cyclooctene were measured under pseudo-first order conditions using SX 18MV-R stopped-flow spectrophotometer (Applied Photophysics Ltd.). Each solution of tetrazine and trans-cyclooctene were injected in equal volumes via 3 mL syringes into the stopped-flow instrument at 25° C., resulting in final concentration of 0.04 mM of tetrazines and 0.40 mM trans-cyclooctene. The reaction was monitored by the decay of absorbance associated with the tetrazines (10a and 10b at 300 nm, 10c at 280 nm). Reaction were repeated in triplicate. With Prism software, an observed rate constant, kobs, was obtained by nonlinear regression.

endogenous MAGL = target: T2, endogenous MAGL (Homo sapiens, UniProt Q99685); test: Labeling of endogenous MAGL in live cells, gel-based ABPP with TCO-TAMRA; assay type: cell-based
T2 sequence (Q99685 1-303): T1 sequence (Q99685 1-303)
Method: Cell culture and probe treatment. Human brain vascular pericytes were cultured in Dulbecco's Modified Eagle Medium/Nutrient Mixture F-12 (DMEM/F-12) GlutaMAX media supplemented with 5% heat-inactivated fetal bovine serum (HI FBS), 1× pericyte growth supplement (PGS), and 1× penicillin-streptomycin at 37° C. with 5% CO2 in a humidified environment. Probe treatment was performed in duplicates. Cells were plated in 6-well plates and cultured overnight in growth media. Live cells were then treated with 300 nM KML29 as a competitor compound (or DMSO as a control) at 37° C. for 1 h. Cells were subsequently treated with probe 9 (0.3 nM-3.2 μM) at 37° C. for 1 h (cells pre-treated with KML29 were treated with 32 nM of probe 9), after which the cells were washed with fresh growth media. The media were then placed with fresh media containing 2 μM of TCO-TAMRA, and the cells were incubated at 37° C. for 30 min. To quench the reaction, the media were replaced with PBS containing 100 μM tetrazine amine, and the cells were washed with cold PBS and harvested with a scrapper. The suspensions were centrifuged at 10,000×g for 1 min at 37° C., and the cell pellets were lysed in PBS containing 0.25% sodium dodecyl sulfate (SDS) with sonication. The protein concentration was measured with a bicinchoninic acid (BCA) assay kit (Thermo Scientific) and normalized. In-gel fluorescence and data analysis. The proteomes were analyzed with 1.0 mm thick 4-12% bis-tris 15-well protein gels in 2-(N-morpholino)ethanesulfonic acid (MES) buffer. The gels were scanned with a Typhoon FLA 9500 Biomolecular Imager (GE Healthcare) with the TAMRA channel with 532 nm excitation and a 575 nm long pass emission filter. To measure the total protein loading, the gels were treated with ClearPage Instant Blue (CBS Scientific) overnight, and after brief destaining with water, scanned with an Odyssey Imager (Li-COR) at the 700 nm channel. The in-gel fluorescence images were processed with ImageJ software (v1.47, NIH), and the intensities were quantified with Image Studio (v5.2, Li-COR) with background subtraction. The coomassie images were processed and quantified with the Image Studio software with background subtraction. For analysis of the cellular potency, the in-gel fluorescence intensities of the two MAGL bands were averaged, normalized with the total coomassie intensity of the corresponding sample, and fitted with a dose-response equation with Prism v7.02 (GraphPad). […] The media were then placed with fresh media containing 2 μM of TCO-TAMRA, and the cells were incubated at 37° C. for 30 min. […] The protein concentration was measured with a bicinchoninic acid (BCA) assay kit (Thermo Scientific) and normalized. In-gel fluorescence and data analysis. […]

[4] = Stopped-flow kinetics of 9 versus 10 with axial 5-hydroxy-trans-cyclooctene in methanol; conditions: 25° C.; for kobs, average rate constant: 0.05 mM tetrazine, 0.5 mM trans-cyclooctene
Method: 0.1 mM solutions (10 mL) in methanol were prepared from stock solutions of 9 (16.3 mg in 632 μL DMF, 50 mM) and 10 (10.0 mg in 422 μL MeOH, 100 mM). A 1.0 mM solution (25 mL) in methanol of axial 5-hydroxy-trans-cyclooctene 11 was also prepared from a stock solution (29.0 mg in 460 μL MeOH, 500 mM). The reaction between tetrazine and a trans-cyclooctene was measured under pseudo-first order conditions using a SX 18MV-R stopped-flow spectrophotometer (Applied Photophysics Ltd.). The 0.1 mM solution of tetrazines 9 or 10 and the 1.0 mM solution of trans-cyclooctene 11 were injected as equal volumes via syringe into the stopped-flow instrument which was held at 25° C., resulting in a final concentration of the tetrazine of 0.05 mM and a final concentration of the trans-cyclooctene of 0.5 mM. The reaction was monitored by the absorbance decay of tetrazine measured at 290 nm. Data points were collected every 0.1 second for 400 seconds and reaction was repeated in triplicate. Prism software was used to obtain the observed rate of each reaction, kobs, which was determined by nonlinear regression analysis resulting in average rate constants of 0.01033 s^−1 for 9 and 0.00975 s^−1 for 10. The relative rate, krel, of 9 versus 10 was thus determined to be 1.06.

| Structure (SMILES) | IC50 (human MAGL enzyme) [nM] | k2, second order rate constant [1] [M⁻¹ s⁻¹] | kobs ([1]; TCO 0.25 mM) [s⁻¹] | kobs ([1]; TCO 0.30 mM) [s⁻¹] | kobs ([1]; TCO 0.35 mM) [s⁻¹] | kobs ([1]; TCO 0.40 mM) [s⁻¹] | krel [1] | other results |
| --- | --- | --- | --- | --- | --- | --- | --- | --- |
| COC(=O)CCc1nncnn1 [4f, methyl 3-(1,2,4,5-tetrazin-3-yl)propanoate] | – | 1591 ± 25.74 | 0.53 | 0.61 | 0.68 | 0.77 | 8.0 | – |
| COC(=O)CCc1nnc(-c2cccc(C#N)c2)nn1 [5i, methyl 3-(6-(3-cyanophenyl)-1,2,4,5-tetrazin-3-yl)propanoate] | – | 69.88 ± 4.824 | 0.21 | 0.24 | 0.029 | 0.032 | 0.35 | – |
| COC(=O)CCc1nnc(-c2ccoc2)nn1 [5l, methyl 3-(6-(furan-3-yl)-1,2,4,5-tetrazin-3-yl)propanoate] | – | – | – | – | – | – | – | times less reactive than 5b ([1]; reaction with 5-hydroxyTCO): 2.9 times; decomposition per day [2]: 1.7%; logP (Experimental log P): 1.2 |
| C=C(OCC)c1nnc(-c2ccccc2)nn1 [6a, 3-(1-ethoxyvinyl)-6-phenyl-1,2,4,5-tetrazine] | – | 2007 ± 101.3 | 0.52 | 0.62 | 0.70 | 0.83 | 10 | decomposition per day [2]: 0.8% |
| O=C(OC(C(F)(F)F)C(F)(F)F)N1CCC(C(O)(c2ccc3c(c2)OCO3)c2ccc3c(c2)OCO3)CC1 [KML29, reference compound] | – | – | – | – | – | – | – | competition of probe 9 labeling of MAGL (endogenous MAGL; probe 9 32 nM 1 h after pre-treatment with KML29 300 nM 1 h): competed |
| Cc1nnc(-c2ccc(-n3ccc(C4CCN(C(=O)OC(C(F)(F)F)C(F)(F)F)CC4)n3)cc2)nn1 [compound 9, 1,1,1,3,3,3-hexafluoropropan-2-yl 4-(1-(4-(6-methyl-1,2,4,5-tetrazin-3-yl)phenyl)-1H-pyrazol-3-yl)piperidine-1-carboxylate] | 31 | – | – | – | – | – | – | off-target labeling in live cells (endogenous MAGL; human brain vascular pericytes, in-gel fluorescence, consistent with ABHD6): labeled an additional protein at ˜35 kDa; IC50 (endogenous MAGL; human brain vascular pericytes, probe 1 h, then 2 μM TCO-TAMRA 30 min, in-gel fluorescence, read-out: cellular IC50 of MAGL labeling): 8 nM; kobs, average rate constant [4]: 0.01033 s⁻¹; krel of 9 versus 10 [4]: 1.1 and 1.06 |
| Cc1nnc(-c2ccc(CN)cc2)nn1 [compound 10, 3-methyl-6-(4-aminomethyl)tetrazine, reference compound] | – | – | – | – | – | – | – | kobs, average rate constant [4]: 0.00975 s⁻¹ |

Now from value to compound, other results behind:

| IC50 (human MAGL enzyme) [nM] | Structure (SMILES) | k2, second order rate constant [1] [M⁻¹ s⁻¹] | kobs ([1]; TCO 0.25 mM) [s⁻¹] | kobs ([1]; TCO 0.30 mM) [s⁻¹] | kobs ([1]; TCO 0.35 mM) [s⁻¹] | kobs ([1]; TCO 0.40 mM) [s⁻¹] | krel [1] | other results |
| --- | --- | --- | --- | --- | --- | --- | --- | --- |
| 12 | O=C(OC(C(F)(F)F)C(F)(F)F)N1CCC(CNS(=O)(=O)c2ccc(-c3nnc(-c4ccoc4)nn3)cc2)CC1 [100a, 1,1,1,3,3,3-hexafluoropropan-2-yl 4-((4-(6-(furan-3-yl)-1,2,4,5-tetrazin-3-yl)phenylsulfonamido)methyl)piperidine-1-carboxylate] | – | – | – | – | – | – | kobs [3]: 0.003623 s⁻¹; krel [3]: 3 |
| 46 | C=C(OCC)c1nnc(-c2ccc(S(=O)(=O)NCC3CCN(C(=O)OC(C(F)(F)F)C(F)(F)F)CC3)cc2)nn1 [100b, 1,1,1,3,3,3-hexafluoropropan-2-yl 4-((4-(6-(1-ethoxyvinyl)-1,2,4,5-tetrazin-3-yl)phenylsulfonamido)methyl)piperidine-1-carboxylate] | – | – | – | – | – | – | kobs [3]: 0.031 s⁻¹; krel [3]: 25; fold more reactive than 100a ([3]; stopped flow kinetics with 5-hydroxyTCO): 8.6 fold |
